Source: publication PMC9308172 (Journal of medicinal chemistry, 2017)

test system: A/WSN/33-M2-N31S; format: cell-based, Influenza virus A/WSN/33 (H1N1); conditions: read-out: IC50 A/WSN/33-M2-N31S

| Structure (SMILES) | IC50 [nM] |
| --- | --- |
| NC12CC3CC(CC(C3)C1)C2 [Compound 1, Amantadine, reference compound] | 270 ± 160 |
| NC1C2CC3CC(C2)CC1C3 (stereo not shown) [Compound 2] | 420 ± 460 |
| CC1(N)C2CC3CC(C2)CC1C3 (stereo not shown) [Compound 3] | 330 ± 100 |
| CCC1(N)C2CC3CC(C2)CC1C3 (stereo not shown) [Compound 4] | 340 ± 260 |
| CCCC1(N)C2CC3CC(C2)CC1C3 (stereo not shown) [Compound 5] | 340 ± 100 |
| C1CNC2(C1)C1CC3CC(C1)CC2C3 (stereo not shown) [Compound 6] | 340 ± 80 |
| CN1CCCC12C1CC3CC(C1)CC2C3 (stereo not shown) [Compound 7] | 900 ± 290 |
| CC12CC3CC(CC(C3)C13CCCN3)C2 (stereo not shown) [Compound 8, 1′-Methylspiro[pyrrolidine-2,2′-adamantane]] | 6120 ± 2590 |
| NC1(C23CC4CC(CC(C4)C2)C3)CCCC1 [Compound 9] | 4340 ± 2940 |

test system: A/California/07/2009 (H1N1) M2: N31; conditions: cited from earlier work

| Structure (SMILES) | blockage of full-length S31N M2 protein in electrophysiology (EP) studies |
| --- | --- |
| CCCC1(N)C2CC3CC(C2)CC1C3 (stereo not shown) [Compound 5] | no blockage |
